Test system: Lol p V reactive T Cells
Assay: T cell proliferation (tritiated thymidine) of Lol p V-primed T cell lines from grass-allergic patients
Assay type: cell-based, human
Source text: As discussed in Example 2, human T cell stimulating activity can be tested by culturing T cells obtained from an individual sensitive to Lol p V allergen, (i.e., an individual who has an IgE mediated immune response to Lol p V allergen) with a peptide derived from the allergen and determining whether proliferation of T cells occurs in response to the peptide as measured, e.g., by cellular uptake of tritiated thymidine. Stimulation indices for responses by T cells to peptides can be calculated as the maximum CPM in response to a peptide divided by the control CPM. A stimulation index (S.I.) equal to or greater than two times the background level is considered “positive”. Positive results are used to calculate the mean stimulation index for each peptide for the group of patients tested. In FIGS. 4 and 5 the mean T cell stimulation index is indicated above the bar. Preferred peptides of this invention comprise at least one T cell epitope and have a mean T cell stimulation index of greater than or equal to 2.0. […]
In addition, preferred peptides have a positivity index (P.I.) of at least about 60, more preferably about 100, more preferably at least about 200 and most preferably at least about 300. The positivity index for a peptide is determined by multiplying the mean T cell stimulation index by the percent of individuals, in a population of individuals sensitive to ryegrass pollen (e.g., preferably a population of at least 15 individuals, more preferably a population of at least 30 individuals or more), who have a T cell stimulation index to such peptide of at least 2.0. […]
In FIG. 5, the bar represents the cumulative rank of the peptide response in the group of patients tested as described in Example 2. To determine the cumulative rank, the 5 peptides with the highest S.I. in each individual were determined and assigned a numerical rank in descending order, with 5 representing the strongest response. […]
This amount of priming antigen was determined to be optimal for the activation of T cells from most grass-allergic patients. […]

LPIX-5: synthetic overlapping peptide derived from Lol p V, sequence in FIG. 2 (GFKAAVAAAANAPPADKFKI; Lolium perenne)
percent of positive responses (patients with S.I. of at least 2) (group of 19 patients tested, FIG. 4): 26.3%

LPIX-20: synthetic overlapping peptide derived from Lol p V, sequence in FIG. 2 (AYETYKFIPSLEAAVKQAYA; Lolium perenne)
ranked sum (cumulative rank of the peptide response) (19 patients, 5 peptides with highest S.I. per individual ranked, ranks summed, FIG. 5): highest ranked sum

rFel d I (Chain I): recombinant Fel d I chain I, control antigen in T cell assay [reference compound]
T cell proliferative response of one patient (one allergic patient, results not shown): not

Reference: patent US7112333B1, “T cell epitopes of ryegrass pollen allergen” (Heska Corporation, priority 1994, dated 2006)
